The subject of the assay is C. albicans (SC5314). The experiment in a line: MIC dose-response assay in YPD. The format is cell-based. The protocol:
We tested the effects of 4456dh on live cells by determining the minimal inhibitory concentration causing 80% growth reduction (MIC80). […] The MIC80 increased at 30°C to greater than 13 mM (Fig. S7A).
Fig 4 4456dh inhibits the growth of Candida and Cryptococcus species. […] 4456dh was administered at the concentrations indicated. Cultures were grown in YPD at the listed temperatures for 48 hours for Candida species and 72 hours for Cryptococcus species. Experimental temperatures reflect the temperatures at which the fungi experience heat stress. Left: relative growth of treated samples was calculated by averaging technical triplicates and normalizing the OD600 of each treated well to the average OD600 of the untreated WT controls, after the absorbance due to the compound was subtracted. The MIC80 values, calculated based on the OD600 values, are indicated in the white text on each heat map. Right: representative spot assays show the ability of cells to grow after exposure to 4456dh and indicate fungicidal activity of 4456dh. […]
102 determined by identifying the inflection point of the derivative data.
103 Tps1 Enzyme Activity Assay
104 The catalytic activity of C. albicans Tps1 and C. neoformans Tps1 was measured via a continuous
105 enzyme- coupled assay as previously reported ( 4) . […]
110 bottomed 96-well microtiter plates and the decrease in absorbance at 340 nm during the initial
111 reaction rate was recorded using a plate reader (Tecan). The decrease in absorbance was
112 analyzed for the first 200s of the kinetic reaction. […]
116 the overnight cultures was quantified by measuring the OD600 and corrected for the background
117 absorbance of the medium. Antifungal potency for 4456dh was assessed by minimum inhibitory […]
124 technical replicates. Growth, as determined by a reading of absorbance at 600 nm, was
125 normalized to untreated controls and was corrected for the absorbance of 4456dh in the YPD […]
129 overnight cultures was quantified by measuring the OD600 and corrected for the background
130 absorbance of the medium. Antifungal potency for 4456dh was assessed by minimum inhibitory […]

Read-outs that look alike come from different tables or passages of the source.

For the compound `Cn1cc(-c2csc(NC(=O)Cc3ccccn3)n2)cn1` [Compound 4456dh], the MIC80 entry was “no MIC was detected” (30°C, YPD); 13 mM (Candida albicans, SC5314, 42°C, YPD, 48 hours, read-out: MIC80); 5160 µg/mL (Candida albicans, SC5314, Supplemental Table 5, This publication, read-out: MIC80).
